Reference: patent publication US11542240B2, “STK19 inhibitors for treatment of cancer” (TRUSTEES OF BOSTON UNIVERSITY, priority 2018, dated 2023)
Like-named read-outs stand apart in the source and are kept apart here.

Key:
[1] = tested on: WM2032 cells; experiment: caspase activity assay (apoptosis), 4 days; assay type: cell-based, human; details: WM2032, 4 days
From the text: (§1) In addition, the inventors investigated the growth inhibitory effects of IV in melanoma cells with different NRAS and BRAF status, including A375 and UACC62 (NRASWT, BRAFV600E), and SK-MEL-2 and WM2032 (NRASQ61R, BRAFWT).

[2] = tested on: SK-MEL-2 cells; experiment: caspase activity assay (apoptosis), 4 days; assay type: cell-based, human; details: SK-MEL-2, 4 days
From the text: as §1

[3] = tested on: A375 cells; experiment: caspase activity assay (apoptosis), 4 days; assay type: cell-based, human; details: A375, 4 days
From the text: as §1

[4] = target: G9a histone lysine methyltransferase (Homo sapiens (Human), UniProt Q96KQ7); experiment: in vitro methyltransferase assay, G9a enzyme activity; assay type: biochemical; details: read-out: IC50, inhibitory activity towards G9a histone lysine methyltransferase
[5] = target: T1, STK19 (Homo sapiens (Human), UniProt P49842); experiment: thermal denaturation curve shift of STK19; details: read-out: shift in the melting temperature of STK19
[6] = target: panel of 468 diverse kinases (Homo sapiens, UniProt Q9P0L2); experiment: biochemical; assay type: binding; details: MARK1; 1000 nM; read-out: Percent Control
[7] = target: panel of 468 diverse kinases (Homo sapiens, UniProt P49137); experiment: biochemical; assay type: binding; details: MAPKAPK2; 1000 nM; read-out: Percent Control
[8] = target: panel of 468 diverse kinases (Homo sapiens, UniProt Q14004); experiment: biochemical; assay type: binding; details: read-out: Percent Control
[9] = target: panel of 468 diverse kinases (Homo sapiens, UniProt P52333); experiment: biochemical; assay type: binding; details: JAK3(JH1domain-catalytic); 1000 nM; read-out: Percent Control
[10] = target: panel of 468 diverse kinases (Homo sapiens, UniProt Q32MK0); experiment: biochemical; assay type: binding; details: MLCK; 1000 nM; read-out: Percent Control
[11] = target: panel of 468 diverse kinases (Homo sapiens, UniProt Q14680); experiment: biochemical; assay type: binding; details: MELK; 1000 nM; read-out: Percent Control
[12] = tested on: UACC62 cells; experiment: immunoblots of NRAS phosphorylation and NRAS signaling; assay type: cell-based, human; details: UACC62 (NRASWT, BRAFV600E)
[13] = tested on: SK-MEL-2 xenograft melanoma (with NRASQ61R); experiment: SK-MEL-2 xenograft in nude mice; assay type: in vivo, mouse
Procedure: (§2) FIGS. 6B-6D. Growth curve, tumor weight, and dissected tumors for the xenograft experiments with indicated cells inoculated subcutaneously into flanks of nude mice treated with IV. Visible tumors were measured every three days. […] (FIGS. 6E-6G) Growth curve, tumor weight, and dissected tumors for the xenograft experiments with SK-MEL-2 cells inoculated subcutaneously into flanks of nude mice treated with IV. Visible tumors were measured every three days. […] (FIGS. 6H-6I) Effects of IV treatment on in vivo proliferation and apoptosis were evaluated by staining of the sections of tumor collected in G for Ki67 and cleaved caspase-3. The sections were counterstained with DAPI. Data are means±SD (n=7). Representative images were shown. Scale bar, 100 μm.

[14] = target: T1, STK19; experiment: STK19 kinase inhibitory activity, ADP-Glo kinase assay with NRAS substrate; assay type: biochemical
[15] = tested on: WM2032 cells; assay type: cell-based, human
From the text: as §1
(§3) To further confirm the pharmacological effects of IV derive from STK19 inhibition and not G9a inhibition, the inventors investigated the role of G9a in NRAS signaling activation. G9a was silenced by G9a-specific shRNA or inhibited by a specific inhibitor, A-366, in SK-MEL-2 and WM2032 melanoma cells. […] In summary, ZT-12-037-01 (IV) is a specific STK19-targeted inhibitor to block oncogenic NRAS-driven melanocyte malignant transformation and melanoma growth.

[16] = tested on: SK-MEL-2 cells; assay type: cell-based, human
From the text: as §1, §3

[17] = tested on: hTERT/p53DD/CDK4(R24C) melanocytes xenograft; experiment: xenograft tumor formation of engineered melanocytes in nude mice; assay type: in vivo, mouse
Procedure: as §2
The inventors also performed immunofluorescence on SK-MEL-2 xenograft tumors to investigate the effects of IV on in vivo proliferation and apoptosis, represented by Ki67 and cleaved caspase-3 staining.

[18] = target: STK19 V134Y (Homo sapiens (Human), UniProt P49842, V134Y); experiment: STK19 kinase assay, V134Y mutant; details: V134Y mutation
[19] = tested on: hTERT/p53DD/CDK4(R24C) melanocytes; experiment: cell proliferation assay of NRASQ61R-expressing immortal melanocytes; assay type: cell-based, human; details: 3 μM IV
[20] = target: T1, STK19; experiment: in vitro kinase assay, HA-NRASQ61R phosphorylation by immunoblot; details: dose- and time-dependent; different doses 15 min or 3 μM different times
[21] = target: STK19 L139F (Homo sapiens (Human), UniProt P49842, L139F); experiment: STK19 kinase assay, L139F mutant; details: L139F mutation
[22] = tested on: WM2032 cells; experiment: cell proliferation rate, 4 days; assay type: cell-based, human; details: WM2032, 4 days
From the text: as §1

[23] = tested on: SK-MEL-2 cells; experiment: cell proliferation rate, 4 days; assay type: cell-based, human; details: SK-MEL-2, 4 days
From the text: as §1

[24] = tested on: UACC62 cells; experiment: cell proliferation rate, 4 days; assay type: cell-based, human; details: UACC62, 4 days
From the text: as §1

[25] = tested on: A375 cells; experiment: cell proliferation rate, 4 days; assay type: cell-based, human; details: A375, 4 days
From the text: as §1

T1 sequence (P49842 other isoform, or with tags, fused parts or gaps): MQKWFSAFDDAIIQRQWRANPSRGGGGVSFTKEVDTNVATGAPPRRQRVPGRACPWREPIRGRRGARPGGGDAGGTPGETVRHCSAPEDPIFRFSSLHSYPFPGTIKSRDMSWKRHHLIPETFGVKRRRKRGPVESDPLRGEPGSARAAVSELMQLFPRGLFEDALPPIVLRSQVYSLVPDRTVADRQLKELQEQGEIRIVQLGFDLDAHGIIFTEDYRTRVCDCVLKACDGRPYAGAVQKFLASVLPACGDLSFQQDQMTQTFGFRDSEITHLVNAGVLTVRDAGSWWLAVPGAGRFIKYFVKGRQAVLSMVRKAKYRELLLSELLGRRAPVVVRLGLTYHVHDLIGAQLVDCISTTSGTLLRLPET
STK19 L139F, sequence (P49842 other isoform, or with tags, fused parts or gaps L139F): as the sequence (P49842 other isoform, or with tags, fused parts or gaps) above, with L139F counted along it
STK19 V134Y, sequence (P49842 other isoform, or with tags, fused parts or gaps V134Y): as the sequence (P49842 other isoform, or with tags, fused parts or gaps) above, with V134Y counted along it
G9a histone lysine methyltransferase, sequence (Q96KQ7 whole entry): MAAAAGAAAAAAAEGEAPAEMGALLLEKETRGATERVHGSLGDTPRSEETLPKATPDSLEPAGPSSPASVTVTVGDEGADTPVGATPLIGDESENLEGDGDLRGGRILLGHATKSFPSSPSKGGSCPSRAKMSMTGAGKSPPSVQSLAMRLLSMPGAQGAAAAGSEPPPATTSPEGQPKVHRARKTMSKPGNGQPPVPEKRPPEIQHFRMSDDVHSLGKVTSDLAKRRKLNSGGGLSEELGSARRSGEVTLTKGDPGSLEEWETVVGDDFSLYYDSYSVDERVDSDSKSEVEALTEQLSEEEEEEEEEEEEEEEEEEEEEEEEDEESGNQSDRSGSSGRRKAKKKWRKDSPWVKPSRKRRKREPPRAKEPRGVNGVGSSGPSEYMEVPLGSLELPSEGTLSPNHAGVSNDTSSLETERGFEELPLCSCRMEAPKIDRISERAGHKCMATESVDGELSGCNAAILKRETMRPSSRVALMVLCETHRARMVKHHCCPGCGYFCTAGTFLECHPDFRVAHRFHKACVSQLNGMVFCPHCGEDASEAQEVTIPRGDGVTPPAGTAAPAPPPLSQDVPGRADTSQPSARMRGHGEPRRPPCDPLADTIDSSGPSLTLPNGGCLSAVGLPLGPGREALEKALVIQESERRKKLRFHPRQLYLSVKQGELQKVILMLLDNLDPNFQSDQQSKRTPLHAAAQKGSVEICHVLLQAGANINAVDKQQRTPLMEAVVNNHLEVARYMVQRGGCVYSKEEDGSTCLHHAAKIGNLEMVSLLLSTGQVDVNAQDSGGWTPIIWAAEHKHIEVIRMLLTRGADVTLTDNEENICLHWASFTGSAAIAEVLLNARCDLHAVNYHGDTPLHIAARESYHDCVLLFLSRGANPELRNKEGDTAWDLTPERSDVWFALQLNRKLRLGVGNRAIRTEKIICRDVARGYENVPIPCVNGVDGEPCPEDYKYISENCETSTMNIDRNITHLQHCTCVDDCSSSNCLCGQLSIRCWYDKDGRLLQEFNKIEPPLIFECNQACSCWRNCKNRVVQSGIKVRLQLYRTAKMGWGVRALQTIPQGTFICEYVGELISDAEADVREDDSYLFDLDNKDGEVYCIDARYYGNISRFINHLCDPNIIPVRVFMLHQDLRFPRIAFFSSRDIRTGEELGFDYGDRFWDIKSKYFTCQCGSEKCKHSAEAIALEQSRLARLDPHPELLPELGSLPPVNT

## COc1cc2nc(NC3CC3)nc(NC3CCN(C(C)C)CC3)c2cc1OC [Formula IV]
[1]
  apoptosis: induced apoptosis
[2]
  apoptosis: induced apoptosis
[3]
  apoptosis: reduced impact
[4]
  IC50: 467 nM
[5]
  ΔTm at 100 µM: 6.8 °C
[6]
  remaining activity at 1 µM: 92%
[7]
  remaining activity at 1 µM: 100%
[8]
  remaining activity at 1 µM: 55%
[9]
  remaining activity at 1 µM: 70%
[10]
  remaining activity at 1 µM: 91%
[11]
  remaining activity at 1 µM: 85%
[12]
  NRAS signaling, including MEK-ERK and PI3K pathways: much less effective
[13]; 25 and 50 mg/kg IV vs controls
  survival of SK-MEL-2 xenograft tumor-bearing mice: significantly prolonged
[13]; dose-dependent
  growth of SK-MEL-2 xenograft melanoma: inhibited growth
[13]; immunoblot, different doses
  NRAS activity in SK-MEL-2 xenograft tumors: inhibited NRAS activity
[13]; immunoblot, marker of G9a activity
  levels of H3K9 methylation in SK-MEL-2 xenograft tumors: did not affect
[13]; mouse, in vivo
  apoptosis of SK-MEL-2 tumors (cleaved caspase-3 staining): induced apoptosis
  in vivo cell proliferation of SK-MEL-2 tumors (Ki67 staining): effectively inhibited
[14]
  inhibition at 10 µM: 84%
[14]; STK19WT, read-out: IC50 for STK19WT
  IC50: 24 nM
[14]; STK19 kinase, read-out: IC50 (nm)
  IC50: 24 nM
[14]; different ATP concentrations
  mode of inhibition (IC50 against STK19 at increasing ATP concentrations): ATP-competitive inhibitor
[14]; measured as percentage of NRAS phosphorylation, read-out: IC50, inhibitory activity against STK19
  IC50: 24 nM
[15]; WM2032 (NRASQ61R)
  NRAS signaling, including MEK-ERK and PI3K pathways: effectively inhibited
[15]; WM2032, IV 100 nM and 300 nM
  NRAS phosphorylation and activity: effectively decreased
[15]; WM2032, IV up to 300 nM
  H3K9 methylation: no obvious effects
[16]; SK-MEL-2 (NRASQ61R)
  NRAS signaling, including MEK-ERK and PI3K pathways: effectively inhibited
[16]; SK-MEL-2, IV 100 nM and 300 nM
  NRAS phosphorylation and activity: effectively decreased
[16]; SK-MEL-2, IV up to 300 nM
  H3K9 methylation: no obvious effects
[16]; SK-MEL-2 cells
  IV-mediated inhibition of oncogenic NRAS signaling after introduction of IV-resistant STK19 V134Y or L139F: rescued
[17]
  mutant NRAS/STK19-driven melanocyte tumor formation: significantly inhibited
[18]
  inhibitory potential of IV for STK19 V134Y: remarkably compromised
[19]
  mutant NRAS/STK19-driven melanocyte proliferation: significantly inhibited
[20]
  phosphorylation of NRAS: efficiently inhibited
[21]
  inhibitory potential of IV for STK19 L139F: remarkably compromised
[22]
  cell growth: effectively inhibited
[23]
  cell growth: effectively inhibited
[24]
  cell growth: reduced impact
[25]
  cell growth: reduced impact
